Results from US10780090B2, “Heteroaryl compounds useful as inhibitors of SUMO activating enzyme” (Millennium Pharmaceuticals, Inc., priority 2014, dated 2020).

Target: recombinant human SAE enzyme (Homo sapiens (Human), UniProt Q9UBT2)
Assay: SAE HTRF enzyme assay
Type: biochemical
Outline: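 Enzyme reaction: 50 mM HEPES pH 7.5, 5 mM MgCl2, 250 μM GSH, 0.05% BSA, 0.5 μM ATP, 0.01 μM Ubc9-GST, 0.125 μM Sumo-Flag, 0.11 nM SAE; 105 min, 24° C. Stop/detect, 2 h, then HTRF. % inh or IC50.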

recombinant human SAE enzyme, sequence (Q9UBT2 whole entry): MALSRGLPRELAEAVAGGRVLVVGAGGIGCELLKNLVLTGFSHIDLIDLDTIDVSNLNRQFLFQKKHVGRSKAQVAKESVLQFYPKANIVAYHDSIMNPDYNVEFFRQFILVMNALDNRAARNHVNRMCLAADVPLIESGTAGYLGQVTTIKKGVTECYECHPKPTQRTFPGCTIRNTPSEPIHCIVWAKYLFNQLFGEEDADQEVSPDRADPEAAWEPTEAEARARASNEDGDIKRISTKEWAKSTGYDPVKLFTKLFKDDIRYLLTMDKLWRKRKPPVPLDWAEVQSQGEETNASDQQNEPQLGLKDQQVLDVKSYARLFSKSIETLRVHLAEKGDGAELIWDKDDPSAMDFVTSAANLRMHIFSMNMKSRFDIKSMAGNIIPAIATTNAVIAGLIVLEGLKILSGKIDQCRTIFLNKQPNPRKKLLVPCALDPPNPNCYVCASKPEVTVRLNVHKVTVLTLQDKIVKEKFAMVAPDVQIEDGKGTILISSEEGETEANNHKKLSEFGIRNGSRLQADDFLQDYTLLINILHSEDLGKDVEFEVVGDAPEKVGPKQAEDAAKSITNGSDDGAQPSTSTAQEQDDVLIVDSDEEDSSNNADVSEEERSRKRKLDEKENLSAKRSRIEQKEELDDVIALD
recombinant human SAE enzyme, sequence (Q9UBE0 whole entry partner): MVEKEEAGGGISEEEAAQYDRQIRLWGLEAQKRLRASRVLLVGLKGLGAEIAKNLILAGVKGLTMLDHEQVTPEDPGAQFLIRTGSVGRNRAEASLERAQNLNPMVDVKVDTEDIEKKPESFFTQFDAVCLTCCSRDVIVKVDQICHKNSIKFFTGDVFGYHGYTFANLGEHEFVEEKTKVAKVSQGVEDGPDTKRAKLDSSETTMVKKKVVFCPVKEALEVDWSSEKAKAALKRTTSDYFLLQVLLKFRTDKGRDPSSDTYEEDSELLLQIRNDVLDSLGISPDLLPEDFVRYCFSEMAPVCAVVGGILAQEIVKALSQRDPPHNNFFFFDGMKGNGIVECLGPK

Question: How did the “Percent Inhibition” value (SAE inhibition at compound concentration 0.111 μM) turn out when `NS(=O)(=O)OC[C@H]1C[C@@H](Nc2ncncc2C(=O)c2cc([C@@H]3OCC(F)(F)c4ccccc43)cs2)C[C@@H]1O` (single isomer, unassigned) [I-293b, [(1R,2S,4R)-4-{[5-({4-[(1R)-4,4-difluoro-3,4-dihydro-1H-isochromen-1-yl]-2-thienyl}carbonyl)pyrimidin-4-yl]amino}-2-hydroxycyclopentyl]methyl sulfamate or [(1R,2S,4R)-4-{[5-({4-[(1S)-4,4-difluoro-3,4-dihydro-1H-isochromen-1-yl]-2-thienyl}carbonyl)pyrimidin-4-yl]amino}-2-hydroxycyclopentyl]methyl sulfamate] was run?
Answer: Its value is 98%.

Question: And the IC50 (SAE inhibition, class symbols, legend in nM)?
Answer: Its IC50 is under 10 nM.
